# In ChEMBL document CHEMBL5042474, “Structure-Guided Discovery of Potent and Selective DYRK1A Inhibitors” (J Med Chem, 2021):
# How the values were obtained:
# [1] = tested on: A2780; test: Antitumor activity against human A2780 cells xenografted in Balb/c mouse assessed as inhibition of tumor growth at 9.5 mg/kg, po bid for 14 days relative to control; assay type: functional; conditions: 336 h, time 14 day, read-out: TGI
# [2] = tested on: RS4-11; test: Antitumor activity against human RS4-11 cells xenografted in BALB/c nu/nu mouse assessed as reduction in DYRK1A autophosphorylation of S520 residue at 12.5 mg/kg, po measured after 6 hrs by western blotting analysis relative to control; assay type: functional; parameters: scale not given: the % may be the effect or the level left
# [3] = Toxicity in Balb/c nude mouse xenografted with human A2780 cells assessed as decrease in body weight at 9.5 mg/kg, po bid for 14 days relative to control; assay type: organism-based; parameters: scale not given: the % may be the effect or the level left; conditions: in vivo, 336 h, time 14 day
# [4] = tested on: A2780; test: Antitumour activity against human A2780 cells xenografted in Balb/c mouse assessed as tumor volume T/C at 9.5 mg/kg, po bid for 14 days relative to control; conditions: time 14 day
# [5] = molecular target: Homeodomain-interacting protein kinase 1 (Homo sapiens) (UniProt Q86Z02); test: Residual activity of HIPK1 (unknown origin) at 10 nM using Ulight-MBP as substrate and ATP as co-substrate incubated for 40 mins and measured after 1 hr by TR-FRET assay relative to control; conditions: time 100.0 min
# Homeodomain-interacting protein kinase 1 (Homo sapiens), sequence (Q86Z02 whole entry, looked up): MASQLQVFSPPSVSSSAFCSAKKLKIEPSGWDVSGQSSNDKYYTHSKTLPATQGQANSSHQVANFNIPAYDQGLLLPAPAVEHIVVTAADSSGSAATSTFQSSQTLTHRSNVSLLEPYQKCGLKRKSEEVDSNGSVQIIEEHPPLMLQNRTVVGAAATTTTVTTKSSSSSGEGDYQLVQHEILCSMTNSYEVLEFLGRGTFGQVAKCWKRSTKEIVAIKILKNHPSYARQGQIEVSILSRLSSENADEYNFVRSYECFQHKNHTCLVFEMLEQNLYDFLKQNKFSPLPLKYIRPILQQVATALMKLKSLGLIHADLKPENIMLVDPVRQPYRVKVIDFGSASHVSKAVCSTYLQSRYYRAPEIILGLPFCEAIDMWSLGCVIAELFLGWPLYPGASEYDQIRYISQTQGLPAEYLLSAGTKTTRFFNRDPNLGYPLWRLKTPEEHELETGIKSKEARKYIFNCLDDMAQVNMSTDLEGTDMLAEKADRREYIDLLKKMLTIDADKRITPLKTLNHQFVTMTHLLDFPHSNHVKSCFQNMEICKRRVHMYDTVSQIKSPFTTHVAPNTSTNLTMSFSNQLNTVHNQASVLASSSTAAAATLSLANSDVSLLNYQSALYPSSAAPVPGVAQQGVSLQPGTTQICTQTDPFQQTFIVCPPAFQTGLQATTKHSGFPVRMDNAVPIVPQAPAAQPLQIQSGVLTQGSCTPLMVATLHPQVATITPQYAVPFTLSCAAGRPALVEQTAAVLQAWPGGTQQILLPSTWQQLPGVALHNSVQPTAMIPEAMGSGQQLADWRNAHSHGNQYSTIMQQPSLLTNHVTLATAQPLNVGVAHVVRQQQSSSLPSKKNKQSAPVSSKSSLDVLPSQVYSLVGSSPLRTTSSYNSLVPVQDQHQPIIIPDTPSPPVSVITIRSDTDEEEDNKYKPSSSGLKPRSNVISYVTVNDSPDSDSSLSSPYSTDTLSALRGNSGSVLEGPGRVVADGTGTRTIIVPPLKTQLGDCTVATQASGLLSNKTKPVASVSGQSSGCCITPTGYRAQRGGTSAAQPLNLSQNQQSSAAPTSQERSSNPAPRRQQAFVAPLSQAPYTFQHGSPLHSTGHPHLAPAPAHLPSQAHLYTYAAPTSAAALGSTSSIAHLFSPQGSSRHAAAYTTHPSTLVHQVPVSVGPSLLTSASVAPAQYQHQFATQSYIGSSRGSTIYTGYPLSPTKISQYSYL
# [6] = molecular target: Dual specificity tyrosine-phosphorylation-regulated kinase 1A (Homo sapiens, UniProt Q13627); test: Residual activity of DYRK1A (unknown origin) at 10 nM using Ulight-MBP as substrate and ATP as co-substrate incubated for 40 mins and measured after 1 hr by TR-FRET assay relative to control; conditions: time 100.0 min
# [7] = tested on: RS4-11; test: Antitumor activity against human RS4-11 cells xenografted in BALB/c nu/nu mouse assessed as reduction in DYRK1A autophosphorylation of S520 residue at 3.125 mg/kg, po measured after 6 hrs by western blotting analysis relative to control; assay type: functional; parameters: scale not given: the % may be the effect or the level left
# [8] = Oral bioavailability in BALB/c nu/nu mouse at 3 mg/kg; assay type: ADME, organism-based; conditions: in vivo
# [9] = Plasma clearance in BALB/c nu/nu mouse at 3 mg/kg, po; assay type: ADME, organism-based
# [10] = tested on: RS4-11; test: Antitumor activity against human RS4-11 cells xenografted in BALB/c nu/nu mouse assessed as reduction in DYRK1A autophosphorylation of S520 residue at 12.5 mg/kg, po measured after 2 hrs by western blotting analysis relative to control; assay type: functional; parameters: scale not given: the % may be the effect or the level left
# [11] = molecular target: Dual specificity protein kinase CLK1 (Homo sapiens) (UniProt P49759); test: Residual activity of CLK1 (unknown origin) at 10 nM using Ulight-MBP as substrate and ATP as co-substrate incubated for 40 mins and measured after 1 hr by TR-FRET assay relative to control; conditions: time 100.0 min
# Dual specificity protein kinase CLK1 (Homo sapiens), sequence (P49759 whole entry, looked up): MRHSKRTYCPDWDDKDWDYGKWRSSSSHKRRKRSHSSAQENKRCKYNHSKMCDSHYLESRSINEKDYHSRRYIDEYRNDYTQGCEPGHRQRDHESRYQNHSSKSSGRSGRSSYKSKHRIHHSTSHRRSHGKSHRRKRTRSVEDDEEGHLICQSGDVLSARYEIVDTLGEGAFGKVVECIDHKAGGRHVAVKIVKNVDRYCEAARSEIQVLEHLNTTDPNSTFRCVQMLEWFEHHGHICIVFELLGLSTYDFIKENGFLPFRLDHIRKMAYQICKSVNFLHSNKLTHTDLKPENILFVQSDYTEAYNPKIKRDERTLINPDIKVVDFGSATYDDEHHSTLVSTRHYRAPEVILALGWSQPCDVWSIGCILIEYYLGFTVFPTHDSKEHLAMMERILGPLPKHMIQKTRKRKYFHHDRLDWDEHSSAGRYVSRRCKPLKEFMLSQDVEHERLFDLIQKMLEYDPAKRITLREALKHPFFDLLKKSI
# [12] = Toxicity in Balb/c nude mouse xenografted with human A2780 cells assessed as decrease in body weight at 18.75 mg/kg, po bid for 14 days relative to control; assay type: organism-based; parameters: scale not given: the % may be the effect or the level left; conditions: in vivo, 336 h, time 14 day
# [13] = tested on: A2780; test: Antitumor activity against human A2780 cells xenografted in BALB/c […] mouse assessed as reduction in DYRK1A autophosphorylation of S520 residue at 75 mg/kg, po measured after 6 hrs by western blotting analysis relative to control; assay type: functional; parameters: scale not given: the % may be the effect or the level left
# [14] = tested on: A2780; test: Antitumor activity against human A2780 cells xenografted in BALB/c nu/nu mouse assessed as reduction in DYRK1A autophosphorylation of S520 residue at 18.75 mg/kg, po measured after 2 hrs by western blotting analysis relative to control; assay type: functional; parameters: scale not given: the % may be the effect or the level left
# [15] = tested on: A2780; test: Antitumour activity against human A2780 cells xenografted in Balb/c mouse assessed as tumour volume T/C at 37.5 mg/kg, po bid for 14 days relative to control; conditions: time 14 day
# [16] = tested on: A2780; test: Antitumor activity against human A2780 cells xenografted in Balb/c mouse assessed as inhibition of tumor growth at 4.75 mg/kg, po bid for 14 days relative to control; assay type: functional; conditions: 336 h, time 14 day, read-out: TGI
# [17] = tested on: SK-N-MC; test: cells; conditions: Homo sapiens
# [18] = tested on: RS4-11; test: Antitumor activity against human RS4-11 cells xenografted in BALB/c nu/nu mouse reduction in DYRK1A autophosphorylation of S520 residue at 6.25 mg/kg, po measured after 6 hrs by western blotting analysis relative to control; assay type: functional; parameters: scale not given: the % may be the effect or the level left
# [19] = tested on: A2780; test: Antitumor activity against human A2780 cells xenografted in BALB/c nu/nu mouse assessed as reduction in DYRK1A autophosphorylation of S520 residue at 37.5 mg/kg, po measured after 2 hrs by western blotting analysis relative to control; assay type: functional; parameters: scale not given: the % may be the effect or the level left
# [20] = tested on: A2780; test: Antitumour activity against human A2780 cells xenografted in BALB/c nu/nu mouse assessed as reduction in DYRK1A autophosphorylation of S520 residue at 9.375 mg/kg, po measured after 6 hrs by western blotting analysis relative to control; assay type: functional; parameters: scale not given: the % may be the effect or the level left
# [21] = tested on: RS4-11; test: Antitumor activity against human RS4-11 cells xenografted in BALB/c nu/nu mouse assessed as reduction in DYRK1A autophosphorylation of S520 residue at 25 mg/kg, po measured after 2 hrs by western blotting analysis relative to control; assay type: functional; parameters: scale not given: the % may be the effect or the level left
# [22] = molecular target: hERG (KCNH2) (Homo sapiens, UniProt Q12809); test: Inhibition of hERG at 10 uM by patch clamp method relative to control; assay type: toxicity
# hERG (KCNH2), sequence (Q12809 whole entry): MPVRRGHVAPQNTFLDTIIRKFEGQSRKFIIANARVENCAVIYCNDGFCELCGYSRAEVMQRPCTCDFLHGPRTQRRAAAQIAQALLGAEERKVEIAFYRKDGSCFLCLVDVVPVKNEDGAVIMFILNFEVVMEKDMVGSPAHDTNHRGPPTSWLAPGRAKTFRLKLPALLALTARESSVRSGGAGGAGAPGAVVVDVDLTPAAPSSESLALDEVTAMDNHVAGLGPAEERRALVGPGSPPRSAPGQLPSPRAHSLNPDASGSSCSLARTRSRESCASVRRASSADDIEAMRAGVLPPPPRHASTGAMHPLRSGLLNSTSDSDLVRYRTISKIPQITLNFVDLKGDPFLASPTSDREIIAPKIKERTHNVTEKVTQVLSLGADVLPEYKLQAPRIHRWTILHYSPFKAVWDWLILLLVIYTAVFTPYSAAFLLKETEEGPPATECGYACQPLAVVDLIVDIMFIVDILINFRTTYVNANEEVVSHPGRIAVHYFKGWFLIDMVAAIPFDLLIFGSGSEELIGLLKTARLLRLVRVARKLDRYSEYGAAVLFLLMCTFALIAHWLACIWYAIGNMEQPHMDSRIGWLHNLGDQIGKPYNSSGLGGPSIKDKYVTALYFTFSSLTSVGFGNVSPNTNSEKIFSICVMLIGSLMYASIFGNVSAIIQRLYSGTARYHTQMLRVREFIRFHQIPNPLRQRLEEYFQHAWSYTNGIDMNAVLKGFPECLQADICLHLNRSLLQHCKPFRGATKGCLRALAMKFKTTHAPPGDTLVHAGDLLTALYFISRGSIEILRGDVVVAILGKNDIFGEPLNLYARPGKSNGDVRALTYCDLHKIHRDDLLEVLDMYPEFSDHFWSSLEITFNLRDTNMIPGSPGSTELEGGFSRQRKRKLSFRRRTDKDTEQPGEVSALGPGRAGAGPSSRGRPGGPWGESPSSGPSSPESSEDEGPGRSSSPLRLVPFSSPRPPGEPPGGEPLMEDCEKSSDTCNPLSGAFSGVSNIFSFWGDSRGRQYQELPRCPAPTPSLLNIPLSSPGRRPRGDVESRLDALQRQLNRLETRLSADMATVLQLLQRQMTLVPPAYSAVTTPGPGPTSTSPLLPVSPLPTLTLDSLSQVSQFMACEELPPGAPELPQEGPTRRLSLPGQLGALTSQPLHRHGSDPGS
# [23] = molecular target: Dual specificity protein kinase CLK4 (Homo sapiens) (UniProt Q9HAZ1); test: Residual activity of CLK4 (unknown origin) at 10 nM using Ulight-MBP as substrate and ATP as co-substrate incubated for 40 mins and measured after 1 hr by TR-FRET assay relative to control; conditions: time 100.0 min
# Dual specificity protein kinase CLK4 (Homo sapiens), sequence (Q9HAZ1 whole entry, looked up): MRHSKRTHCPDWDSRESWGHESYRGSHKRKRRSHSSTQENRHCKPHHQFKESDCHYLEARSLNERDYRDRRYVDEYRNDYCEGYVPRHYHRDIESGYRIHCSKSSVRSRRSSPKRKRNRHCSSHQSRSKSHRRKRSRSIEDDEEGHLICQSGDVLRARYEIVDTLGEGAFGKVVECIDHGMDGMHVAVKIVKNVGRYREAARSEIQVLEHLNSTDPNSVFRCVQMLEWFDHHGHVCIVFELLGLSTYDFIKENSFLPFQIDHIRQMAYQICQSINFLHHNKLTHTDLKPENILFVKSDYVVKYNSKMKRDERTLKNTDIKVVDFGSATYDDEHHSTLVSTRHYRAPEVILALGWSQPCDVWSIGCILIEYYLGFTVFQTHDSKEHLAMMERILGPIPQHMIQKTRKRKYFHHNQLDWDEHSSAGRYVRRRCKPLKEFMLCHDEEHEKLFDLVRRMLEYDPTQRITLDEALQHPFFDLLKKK
# [24] = tested on: RS4-11; test: Antitumor activity against human RS4-11 cells xenografted in BALB/c nu/nu mouse assessed as reduction in DYRK1A autophosphorylation of S520 residue at 25 mg/kg, po measured after 6 hrs by western blotting analysis relative to control; assay type: functional; parameters: scale not given: the % may be the effect or the level left
# [25] = tested on: A2780; test: Antitumor activity against human A2780 cells xenografted in BALB/c […] mouse assessed as reduction in DYRK1A autophosphorylation of S520 residue at 37.5 mg/kg, po measured after 6 hrs by western blotting analysis relative to control; assay type: functional; parameters: scale not given: the % may be the effect or the level left
# [26] = molecular target: Dual specificity tyrosine-phosphorylation-regulated kinase 1B (Homo sapiens) (UniProt Q9Y463); test: Residual activity of DYRK1B (unknown origin) at 10 nM using Ulight-MBP as substrate and ATP as co-substrate incubated for 40 mins and measured after 1 hr by TR-FRET assay relative to control; conditions: time 100.0 min
# Dual specificity tyrosine-phosphorylation-regulated kinase 1B (Homo sapiens), sequence (Q9Y463 whole entry, looked up): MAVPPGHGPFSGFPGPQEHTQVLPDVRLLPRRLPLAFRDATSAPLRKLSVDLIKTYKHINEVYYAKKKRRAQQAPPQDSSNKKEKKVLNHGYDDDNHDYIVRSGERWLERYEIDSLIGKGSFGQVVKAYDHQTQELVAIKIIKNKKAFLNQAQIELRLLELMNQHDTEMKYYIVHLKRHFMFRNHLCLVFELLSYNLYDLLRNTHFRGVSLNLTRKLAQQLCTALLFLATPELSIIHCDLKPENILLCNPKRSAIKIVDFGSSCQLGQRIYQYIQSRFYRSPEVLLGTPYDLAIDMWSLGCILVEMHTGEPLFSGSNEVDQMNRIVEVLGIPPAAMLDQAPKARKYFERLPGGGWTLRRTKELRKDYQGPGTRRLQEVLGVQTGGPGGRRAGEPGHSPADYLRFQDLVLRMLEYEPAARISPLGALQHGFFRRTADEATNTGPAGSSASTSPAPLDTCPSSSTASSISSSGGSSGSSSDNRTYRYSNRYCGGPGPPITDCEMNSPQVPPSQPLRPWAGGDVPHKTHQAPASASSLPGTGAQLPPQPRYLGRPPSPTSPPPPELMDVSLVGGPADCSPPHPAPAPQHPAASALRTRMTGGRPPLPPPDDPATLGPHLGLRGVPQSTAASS
# [27] = tested on: SK-N-MC; test: cells; conditions: Homo sapiens, 120 h
# [28] = tested on: A2780; test: cells; conditions: Homo sapiens, A2780, 120 h
# [29] = tested on: A2780; test: Antitumor activity against human A2780 cells xenografted in Balb/c mouse assessed as tumor volume T/C at 4.75 mg/kg, po bid for 14 days relative to control; conditions: time 14 day
smiles,measurement,setting,value
Cc1nc2ccc(-c3cc(N)nc(N)c3)nc2n1C1CC1,inhibition in vivo at 9.5 mg/kg,[1],28%
same,Activity,[2],84%
same,Activity,[3],8.7%
same,T/C,[4],95%
same,residual activity,[5],72%
same,residual activity,[6],9.2%
same,Activity,[7],38%
same,bioavailability,[8],39%
same,CL/F,[9],226 mL/min/kg
same,Activity,[10],87%
same,residual activity,[11],48%
same,Activity,[12],10.7%
same,Activity,[13],92%
same,Activity,[14],82%
same,T/C,[15],52%
same,inhibition in vivo at 4.75 mg/kg,[16],28%
same,IC50,[17],77 nM
same,Activity,[18],25%
same,Activity,[19],82%
same,Activity,[20],10%
same,Activity,[21],87%
same,inhibition at 10 µM,[22],52%
same,residual activity,[23],52%
same,Activity,[24],91%
same,Activity,[25],95%
same,residual activity,[26],20%
same,IC50,[27],958 nM
same,IC50,[28],1540 nM
same,T/C,[29],91%
